Melting point data for 36 compounds are collected here from US20040147561A1, “Pyrid-2-one derivatives and methods of use” (priority 2002, published 2004).

Molecules are shown by their SMILES. Structures can show the parent of a compound that is named as a salt.

In the case of `CCOC(=O)c1cc(-c2csc(-c3ccnc(NCc4ccco4)c3)n2)c(=O)[nH]c1C` (as salt: HCl) [Example 53, Ethyl 5-(2-(2-[(fur-2-ylmethyl)-amino]-pyridin-4-yl}-thiazol-4-yl)-2-methyl-6-oxo-1,6-dihydro-3-pyridinecarboxylate], the melting point is 260 °C (dec.).

In the case of `CCOC(=O)c1cc(-c2csc(-c3ccnc(NCc4ccc(F)cc4)c3)n2)c(=O)[nH]c1C` (as salt: HCl) [Example 55, Ethyl 5-{2-[2-(4-fluoro-benzylamino)-pyridin-4-yl]-thiazol-4-yl}-2-methyl-6-oxo-1,6-dihydro-3-pyridinecarboxylate], the melting point was 280 °C (dec.).

For `CCCCNc1cc(-c2nc(-c3cc(C(=O)OCC)c(C)[nH]c3=O)cs2)ccn1` (as salt: HCl) [Example 56, Ethyl 5-[2-(2-butylamino-pyridin-4-yl)-thiazol-4-yl]-2-methyl-6-oxo-1,6-dihydro-3-pyridinecarboxylate], the melting point was 230 °C (dec.).

For the compound `CCOC(=O)c1cc(-c2csc(-c3ccnc(NCC(N)=O)c3)n2)c(=O)[nH]c1C` (as salt: HCl) [Example 57, Ethyl 5-{2-[2-(carbamoylmethyl-amino)-pyridin-4-yl]-thiazol-4-yl}-2-methyl-6-oxo-1,6-dihydro-3-pyridinecarboxylate], the melting point is 270 °C (dec.).

`CCOC(=O)c1cc(-c2csc(-c3ccnc(NCCNC(C)=O)c3)n2)c(=O)[nH]c1C` (as salt: HCl) [Example 58]: the melting point was 270 °C (dec.).

As for `Cc1[nH]c(=O)c(-c2csc(-c3ccnc(NCC4CC4)c3)n2)cc1C(=O)NCC1CC1` (as salt: HCl) [Example 60, N-(Cyclopropylmethyl)-5-(2-(2-((cyclopropylmethyl)amino)-4-pyridinyl)-1,3-thiazol-4-yl)-2-methyl-6-oxo-1,6-dihydro-3-pyridinecarboxamide], the melting point was > 260 °C.

With `CCOC(=O)c1cc(-c2csc(-c3ccnc(NCC4CC4)c3)n2)c(=O)[nH]c1C` (as salt: HCl) [Example 61, Ethyl 5-{2-[2-(cyclopropylmethyl-amino)-pyridin-4-yl]-thiazol-4-yl}-2-methyl-6-oxo-1,6-dihydro-3-pyridinecarboxylate], the melting point is > 260 °C.

Turning to `CCOC(=O)c1cc(-c2csc(-c3ccnc(NCC4CCCC4)c3)n2)c(=O)[nH]c1C` (as salt: HCl) [Example 62, Ethyl 5-{2-[2-(Cyclopentyl)methylamino-pyridin-4-yl]-thiazol-4-yl}-2-methyl-6-oxo-1,6-dihydro-3-pyridinecarboxylate], the melting point is 260 °C (dec.).

For `COc1ccc(CNC(=O)c2cc(-c3csc(-c4ccnc(NCc5ccc(OC)cc5)c4)n3)c(=O)[nH]c2C)cc1` (as salt: HCl) [Example 63, 5-{2-[2-(4-Methoxy-benzyamino)-pyridin-4-yl]-thiazol-4-yl}-2-methyl-6-oxo-1,6-dihydropyridine-3-carboxylic acid 4-methoxy-benzylamide], the melting point was 280 °C (dec.).

On to `CCOC(=O)c1cc(-c2csc(-c3ccnc(NC)c3)n2)c(=O)[nH]c1C(C)C` (as salt: HCl) [Example 94, Ethyl 5-[2-(methylamino-pyridin-4-yl)-thiazol-4-yl]-2-isopropyl-6-oxo-1,6-dihydro-3-pyridinecarboxylate], for which the melting point is > 230 °C.

In the case of `CCOC(=O)c1cc(-c2csc(-c3ccnc(N(C)C)c3)n2)c(=O)[nH]c1C(C)C` (as salt: hydrochloride) [Example 93, Ethyl 5-[2-(dimethylamino-pyridin-4-yl)-thiazol-4-yl]-2-isopropyl-6-oxo-1,6-dihydro-3-pyridinecarboxylate], the melting point was > 230 °C.

Turning to `CCOC(=O)c1cc(-c2csc(N(C)S(=O)(=O)c3ccccc3)n2)c(=O)[nH]c1C` (as salt: salt) [Example 68, Ethyl 2-methyl-5-{2-[methyl(phenylsulfonyl)amino](1,3-thiazol-4-yl)}-6-oxo-1,6-dihydro-3-pyridinecarboxylate], the melting point lay within 231 to 234 °C.

As for `O=c1[nH]cc(Oc2ccccc2)cc1-c1csc(-c2ccncc2)n1` (as salt: salt) [Example 71, 5-Phenoxy-3-(2-(4-pyridinyl)-1,3-thiazol-4-yl)-2(1H)-pyridinone], the melting point lay in the range of 243 to 245 °C.

Take `CCOC(=O)c1cc(-c2csc(CS(=O)(=O)c3ccc(Cl)cc3)n2)c(=O)[nH]c1C` [Example 25]: the melting point is 300 °C (dec.).

`CCOC(=O)c1cc(-c2csc(CS(=O)(=O)Cc3ccc(F)cc3)n2)c(=O)[nH]c1C` [Example 26, Ethyl 5-[2-({[(4-fluorophenyl)methyl]sulfonyl}mthyl)(1,3-thiazol-4-yl)]-2-methyl-6-oxo-1,6-dihydro-3-pyridinecarboxylate]: the melting point is 300 °C (dec.).

Consider `CCOC(=O)c1cc(-c2csc(-c3cccs3)n2)c(=O)[nH]c1C` [Example 27], for which the melting point was 230 °C (dec.).

`CCOC(=O)c1cc(-c2csc(CSc3ccccc3)n2)c(=O)[nH]c1C` [Example 28, Ethyl 2-methyl-6-oxo-5-{2-(phenylthiomethyl)(1,3-thiazol-4-yl)}-1,6-dihydro-3-pyridinecarboxylate]: the melting point is 260 °C (dec.).

Turning to `CCOC(=O)c1cc(-c2csc(-c3ccnc(CC)c3)n2)c(=O)[nH]c1C` [Example 29], the melting point was 270 °C (dec.).

With `CCOC(=O)c1cc(-c2csc(CS(=O)(=O)Cc3cccc(C(F)(F)F)c3)n2)c(=O)[nH]c1C` [Example 30], the melting point was 300 °C (dec.).

For the compound `CCOC(=O)c1cc(-c2csc(-c3ccsc3)n2)c(=O)[nH]c1C` [Example 31, Ethyl 2-methyl-6-oxo-5-{2-[3-thienyl](1,3-thiazol-4-yl)}-1,6-dihydro-3-pyridinecarboxylate], the melting point was 230 °C (dec.).

As to `CCOC(=O)c1cc(-c2csc(-c3ccc4c(c3)OCO4)n2)c(=O)[nH]c1C` [Example 32, Ethyl 5-(2-(2H-benzo[d]1,3-dioxolan-5-yl)(1,3-thiazol-4-yl))-2-m thyl-6-oxo-1,6-dihydro-3-pyridinecarboxylate], the melting point was 230 °C (dec.).

`CCOC(=O)c1cc(-c2csc(-c3ccccc3)n2)c(=O)[nH]c1C` [Example 33, Ethyl 2-methyl-6-oxo-5-{2-phenyl(1,3-thiazol-4-yl)}-1,6-dihydro-3-pyridinecarboxylate]: the melting point is 260 °C (dec.).

As for `CCOC(=O)c1cc(-c2csc(-c3ccc(F)cc3)n2)c(=O)[nH]c1C` [Example 34, Ethyl 2-methyl-6-oxo-5-{2-[4-fluorophenyl](1,3-thiazol-4-yl)}-1,6-dihydro-3-pyridinecarboxylate], the melting point was 260 °C (dec.).

`CCOC(=O)c1cc(-c2csc(-c3c(Cl)cccc3Cl)n2)c(=O)[nH]c1C` [Example 35, Ethyl 5-[2-(2,6-dichlorophenyl)(1,3-thiazol-4-yl)]2-methyl-6-oxo-1,6-dihydro-3-pyridinecarboxylate]: the melting point is 260 °C (dec.).

Regarding `CCOC(=O)c1cc(-c2csc(-c3csc(C)n3)n2)c(=O)[nH]c1C` [Example 36], the melting point is 195 °C (dec.).

As to `CCOC(=O)c1cc(-c2csc(CS(=O)(=O)Cc3ccco3)n2)c(=O)[nH]c1C` [Example 37, Ethyl 5-(2-{[(2-furylmethyl)sulfonyl]methyl}(1,3-thiazol-4-yl))-2-methyl-6-oxo-1,6-dihydro-3-pyridinecarboxylate], the melting point is 290 °C (dec.).

Take `CCOC(=O)c1cc(-c2csc(CS(=O)(=O)C(C)(C)C)n2)c(=O)[nH]c1C` [Example 38, Ethyl 5-(2-{[(tert-butyl)sulfonyl]methyl}(1,3-thiazol-4-yl))-2-methyl-6-oxo-1,6-dihydro-3-pyridinecarboxylate]: the melting point is 250 °C (dec.).

For the compound `CCOC(=O)c1cc(-c2csc(-c3cccnc3)n2)c(=O)[nH]c1C` [Example 39], the melting point was 230 °C (dec.).

On to `CCOC(=O)c1cc(-c2csc(-c3ccnc(Cl)c3)n2)c(=O)[nH]c1C` [Example 40], for which the melting point is 250 °C (dec.).

As to `CCOC(=O)c1cc(-c2csc(-c3ccc(OC)cc3)n2)c(=O)[nH]c1C` [Example 41, Ethyl 2-methyl-6-oxo-5-{2-[4-methoxyphenyl](1,3-thiazol-4-yl)}-1,6-dihydro-3-pyridinecarboxylate], the melting point is 240 °C (dec.).

For `CCOC(=O)c1cc(-c2csc(-c3c(Cl)cncc3Cl)n2)c(=O)[nH]c1C` [Example 42, Ethyl 5-[2-(3,5-dichloro-pyridyl-4-yl)-thiazol-4-yl]-2-methyl-6-oxo-1,6-dihydro-3-pyridinecarboxylate], the melting point was 290 °C (dec.).

Regarding `CCOC(=O)c1cc(-c2csc(CS(C)(=O)=O)n2)c(=O)[nH]c1C` [Example 43, Ethyl 5-(2-{[(methyl)sulfonyl]methyl}(1,3-thiazol-4-yl))-2-methyl-6-oxo-1,6-dihydro-3-pyridinecarboxylate], the melting point was 230 °C (dec.).

Consider `CCOC(=O)c1cc(-c2csc(-c3sccc3CS(=O)(=O)c3ccc(Cl)cc3)n2)c(=O)[nH]c1C` [Example 44], for which the melting point is 300 °C (dec.).

For the compound `CCOC(=O)c1cc(-c2csc(-c3ccnc(N4CCCCC4)c3)n2)c(=O)[nH]c1C` [Example 45, Ethyl 2-methyl-6-oxo-5-(2-(2-(1-piperidinyl)-4-pyridinyl)-1,3-thiazol-4-yl)-1,6-dihydro-3-pyridinecarboxylate], the melting point is 260 °C (dec.).

Take `CCOC(=O)c1cc(-c2csc(-c3ccnc(NCC(C)C)c3)n2)c(=O)[nH]c1C` [Example 46, Ethyl 2-methyl-5-(2-(2-((2-methylpropyl)amino)-4-pyridinyl)-1,3-thiazol-4-yl)-6-oxo-1,6-dihydro-3-pyridinecarboxylate]: the melting point was 260 °C (dec.).

For the compound `CCOC(=O)c1cc(-c2csc(-c3ccnc(NCc4ccccc4)c3)n2)c(=O)[nH]c1C` [Example 48, Ethyl 2-methyl-6-oxo-5-(2-(2-((phenylmethyl)amino)-4-pyridinyl)-1,3-thiazol-4-yl)-1,6-dihydro-3-pyridinecarboxylate], the melting point is 290 °C (dec.).
